{"source": "patent US20180066322A1", "about": "“BIOMARKERS ASSOCIATED WITH CDK INHIBITORS” (NOVARTIS AG, priority 2012, published 2018)", "key": {"[1]": {"tested_on": "DLBCL models harboring mutant CCND3 (PEST-domain mutation)", "assay": "Cell viability by Cell Titer Glo (cellular ATP), 72 hours, cells containing mutant CCND3", "format": "cell-based, human", "details": "10 μM to 1.5 nM", "experimental": "Using the pharmacologic characterization of the COLE cell lines, cell lines containing CCND3 mutations were tested for CDKi sensitivity. DOHH-2, NU-DHL-1, SEM, SU-DHL-4, SU-DHL-6, and SU-DHL-10 cells were purchased from Deutsche Sammlung von Mikroorganismen and Zellkulturen GmbH (DSMZ). DB and Pfeiffer cells were purchased from American Type Culture Collection (ATCC). A4/FUK cells were purchased from Health Science Research Resources Bank (HSRRB). These cells were cultured in RPMI 1640 medium (ATCC) supplemented with either 10% (A4/FUK, DB, DOHH-2, Pfeiffer, and SEM cells) or 20% (NU-DHL-1, SU-DHL-4, SU-DHL-6, and SU-DHL-10) fetal bovine serum (Gibco) and incubated at 37° C./5% CO2. For screening, cells were seeded in 80 μl of medium in 96-well plates (Costar #3904) at 10,000 (DB, DOHH-2, NU-DHL-1, SEM, SU-DHL-4, SU-DHL-6, and SU-DHL-10), 15,000 (A4/FUK) or 20,000 (Pfeiffer) cell densities and incubated overnight prior to compound addition. A4/FUK, DOHH-2, NU-DHL-1, SU-DHL-10, DB, Pfeiffer, SU-DHL-4 and SU-DHL-6 cells are diffuse large B cell lymphoma (DLBCL) cell lines. SEM cells are acute lymphoblastic B cell leukemia cells.\n(§1) Compound stock (5×) was freshly prepared in the appropriate culture medium, and manually added to the plates by electronic multichannel pipette. In a minimum of three replicate wells, the number & viability of cells at the time of compound addition, as well as single agent effects after 72 hours, was assessed by quantification of cellular ATP levels via Cell Titer Glo (Promega, Madison, Wis.) according to the manufacturer's protocol. Day 0 subtracted-EC^50s were calculated using standard four-parametric curve fitting (XLFit, model 205).\nCDKi(1)-CDKi(3) were synthesized at Novartis Pharma AG, and compound stocks were prepared in DMSO at a final concentration of 10 mM. Working stocks were serially diluted in the appropriate cell culture medium in 3-fold increments to achieve final assay concentrations ranging from 10 μM to 1.5 nM."}, "[2]": {"tested_on": "DLBCL models harboring wild-type CCND3", "assay": "Cell viability by Cell Titer Glo (cellular ATP), 72 hours, cells containing wild type CCND3", "format": "cell-based, human", "details": "10 μM to 1.5 nM", "experimental": "Using the pharmacologic characterization of the COLE cell lines, cell lines containing CCND3 mutations were tested for CDKi sensitivity. DOHH-2, NU-DHL-1, SEM, SU-DHL-4, SU-DHL-6, and SU-DHL-10 cells were purchased from Deutsche Sammlung von Mikroorganismen and Zellkulturen GmbH (DSMZ). DB and Pfeiffer cells were purchased from American Type Culture Collection (ATCC). A4/FUK cells were purchased from Health Science Research Resources Bank (HSRRB). These cells were cultured in RPMI 1640 medium (ATCC) supplemented with either 10% (A4/FUK, DB, DOHH-2, Pfeiffer, and SEM cells) or 20% (NU-DHL-1, SU-DHL-4, SU-DHL-6, and SU-DHL-10) fetal bovine serum (Gibco) and incubated at 37° C./5% CO2. […]\nas §1, with “205). […]” for “205).”"}}, "note": "Entries after “also recorded” stand apart in the source; their conditions may differ.", "data": [{"smiles": "CN(C)C(=O)c1cc2cnc(Nc3ccc(N4CCNCC4)cn3)nc2n1C1CCCC1", "note": "[CDKi(1)]", "values": [{"measurement": "sensitivity / cell viability of cells containing mutant CCND3", "setting": "[1]", "result": "increased sensitivity"}]}, {"smiles": "CS(=O)(=O)N1CCC(NC(=O)c2[nH]ncc2NC(=O)c2c(Cl)cccc2Cl)CC1", "note": "[CDKi(3)]", "values": [{"measurement": "sensitivity / cell viability of cells containing wild type CCND3", "setting": "[2]", "result": "more sensitive to the pan-CDK inhibitor than to the specific CDK 4/6 inhibitors; also recorded: insensitivity"}, {"measurement": "sensitivity / cell viability of cells containing mutant CCND3", "setting": "[1]", "result": "more sensitive to the pan-CDK inhibitor than to the specific CDK 4/6 inhibitors; also recorded: insensitivity"}]}, {"smiles": "CC(=O)c1c(C)c2cnc(Nc3ccc(N4CCNCC4)cn3)nc2n(C2CCCC2)c1=O", "note": "[CDKi(2), PD0332991, reference compound]", "values": [{"measurement": "sensitivity / cell viability of cells containing mutant CCND3", "setting": "[1]", "result": "more sensitive; also recorded: sensitivity"}]}]}
